Data as given in PubChem BioAssay AID2060894 (Molecular Pharmacology Branch, DTP, NCI, 2025).

Test system: K12877-001-R-J1-PDC complex spheroid viability
Assay: Anticancer human tumor K12877-001-R-J1-PDC patient-derived lung adenocarcinoma cell line growth inhibition [RAS]
Conditions: for IC50: curve of first compound; for viability, T/C: stronger effect = lower value
Summary of the method: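 Multi-cell-type spheroids: tumor cells plus HUVEC endothelial cells and mesenchymal stem cells. RAS-pathway inhibitors were combined with targeted agents, each dosed in half-log steps down from clinical Cmax, or from 10 microM when Cmax was unknown.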

[1] = second compound 0.000949 µM, first compound 0.0316 µM
[2] = second compound 0.000949 µM, first compound 0.1 µM
[3] = second compound 0.000949 µM, first compound 0.316 µM
[4] = second compound 0.000949 µM, first compound 1 µM
[5] = second compound 0.000949 µM, first compound 3.16 µM
[6] = second compound 0.000949 µM, first compound 10 µM
[7] = second compound 0.003 µM, first compound 0.0316 µM
[8] = second compound 0.003 µM, first compound 0.1 µM
[9] = second compound 0.003 µM, first compound 0.316 µM
[10] = second compound 0.003 µM, first compound 1 µM
[11] = second compound 0.003 µM, first compound 3.16 µM
[12] = second compound 0.003 µM, first compound 10 µM
[13] = second compound 0.00949 µM, first compound 0.0316 µM
[14] = second compound 0.00949 µM, first compound 0.1 µM
[15] = second compound 0.00949 µM, first compound 0.316 µM
[16] = second compound 0.00949 µM, first compound 1 µM
[17] = second compound 0.00949 µM, first compound 3.16 µM
[18] = second compound 0.00949 µM, first compound 10 µM
[19] = second compound 0.03 µM, first compound 0.0316 µM
[20] = second compound 0.03 µM, first compound 0.1 µM
[21] = second compound 0.03 µM, first compound 0.316 µM
[22] = second compound 0.03 µM, first compound 1 µM
[23] = second compound 0.03 µM, first compound 3.16 µM
[24] = second compound 0.03 µM, first compound 10 µM
[25] = second compound 0.0949 µM, first compound 0.0316 µM
[26] = second compound 0.0949 µM, first compound 0.1 µM
[27] = second compound 0.0949 µM, first compound 0.316 µM
[28] = second compound 0.0949 µM, first compound 1 µM
[29] = second compound 0.0949 µM, first compound 3.16 µM
[30] = second compound 0.0949 µM, first compound 10 µM
[31] = second compound 0.3 µM, first compound 0.0316 µM
[32] = second compound 0.3 µM, first compound 0.1 µM
[33] = second compound 0.3 µM, first compound 0.316 µM
[34] = second compound 0.3 µM, first compound 1 µM
[35] = second compound 0.3 µM, first compound 3.16 µM
[36] = second compound 0.3 µM, first compound 10 µM
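Also: spheroids exposed to agents for one week before readout.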
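For viability, T/C in this document: tumour cells co-cultured with HUVEC and mesenchymal stem cells in spheroids.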

## C[C@@H](NC(=O)c1ncnc(N)c1Cl)c1ncc(C(=O)Nc2cc(C(F)(F)F)c(Cl)cn2)s1 + CCn1c(-c2cc(N3CCN(C)CC3)cnc2C(C)OC)c2c3cc(ccc31)-c1csc(n1)CC(NC(=O)C1CC1C)C(=O)N1CCCC(N1)C(=O)OCC(C)(C)C2
Second compound 0.000949 µM
  IC50: > 10000 nM
Second compound 0.003 µM
  IC50: > 10000 nM
Second compound 0.00949 µM
  IC50: > 10000 nM
Second compound 0.03 µM
  IC50: > 10000 nM
Second compound 0.0949 µM
  IC50: > 10000 nM
Second compound 0.3 µM
  IC50: > 10000 nM
[1]
  viability, T/C: 85.3%
[2]
  viability, T/C: 85.3%
[3]
  viability, T/C: 81.8%
[4]
  viability, T/C: 84.3%
[5]
  viability, T/C: 89.9%
[6]
  viability, T/C: 75.3%
[7]
  viability, T/C: 72.5%
[8]
  viability, T/C: 78.3%
[9]
  viability, T/C: 70.8%
[10]
  viability, T/C: 83.6%
[11]
  viability, T/C: 77.2%
[12]
  viability, T/C: 83.2%
[13]
  viability, T/C: 66.4%
[14]
  viability, T/C: 62.7%
[15]
  viability, T/C: 67.8%
[16]
  viability, T/C: 69.5%
[17]
  viability, T/C: 70.1%
[18]
  viability, T/C: 68.8%
[19]
  viability, T/C: 62.2%
[20]
  viability, T/C: 58.3%
[21]
  viability, T/C: 60%
[22]
  viability, T/C: 68.3%
[23]
  viability, T/C: 66.3%
[24]
  viability, T/C: 112%
[25]
  viability, T/C: 101%
[26]
  viability, T/C: 89.7%
[27]
  viability, T/C: 97.8%
[28]
  viability, T/C: 106%
[29]
  viability, T/C: 129%
[30]
  viability, T/C: 121%
[31]
  viability, T/C: 100%
[32]
  viability, T/C: 100%
[33]
  viability, T/C: 103%
[34]
  viability, T/C: 111%
[35]
  viability, T/C: 97.8%
[36]
  viability, T/C: 111%

## CCC(CC)c1cc(NC2CCC(N)C2)n2nccc2n1 (centres undefined) + CCn1c(-c2cc(N3CCN(C)CC3)cnc2C(C)OC)c2c3cc(ccc31)-c1csc(n1)CC(NC(=O)C1CC1C)C(=O)N1CCCC(N1)C(=O)OCC(C)(C)C2
Second compound 0.000949 µM
  IC50: 1310 nM
Second compound 0.003 µM
  IC50: 1290 nM
Second compound 0.00949 µM
  IC50: 1380 nM
Second compound 0.03 µM
  IC50: 1510 nM
Second compound 0.0949 µM
  IC50: 1270 nM
Second compound 0.3 µM
  IC50: 1100 nM
[1]
  viability, T/C: 87.7%
[2]
  viability, T/C: 80%
[3]
  viability, T/C: 84.6%
[4]
  viability, T/C: 64.7%
[5]
  viability, T/C: 1.77%
[6]
  viability, T/C: 0.95%
[7]
  viability, T/C: 65.8%
[8]
  viability, T/C: 69.4%
[9]
  viability, T/C: 66.5%
[10]
  viability, T/C: 64%
[11]
  viability, T/C: 1.46%
[12]
  viability, T/C: 0.76%
[13]
  viability, T/C: 62%
[14]
  viability, T/C: 65.9%
[15]
  viability, T/C: 71.3%
[16]
  viability, T/C: 76.7%
[17]
  viability, T/C: 1.47%
[18]
  viability, T/C: 0.9%
[19]
  viability, T/C: 95.4%
[20]
  viability, T/C: 92.6%
[21]
  viability, T/C: 99.5%
[22]
  viability, T/C: 77.5%
[23]
  viability, T/C: 1.04%
[24]
  viability, T/C: 0.76%
[25]
  viability, T/C: 119%
[26]
  viability, T/C: 107%
[27]
  viability, T/C: 102%
[28]
  viability, T/C: 63.6%
[29]
  viability, T/C: 1.11%
[30]
  viability, T/C: 0.76%
[31]
  viability, T/C: 94.6%
[32]
  viability, T/C: 98.1%
[33]
  viability, T/C: 86.2%
[34]
  viability, T/C: 55.2%
[35]
  viability, T/C: 0.75%
[36]
  viability, T/C: 0.8%
